# Test results: the supplement of paper PMC10307832
# Experiments:
# Experiment in all cases: relative viability (nuclei count vs DMSO), 5 days (fraction); higher = more cells survive
# [1] = tested on: LK-2
# In short: (§1)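 Medians of duplicate plates are given as relative viability. That measure is the nuclei count in treated wells divided by the count in vehicle wells. Counts were taken on 4× images of lung cancer cell lines in 1536-well plates, 5 days after pin-tool dosing the day after seeding with one drug alone or a fixed anchor-drug dose plus five library-drug doses (not always all listed) in √10 steps.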
# [2] = tested on: NCI-H727
# In short: as §1
# [3] = tested on: BEN
# In short: as §1
# [4] = tested on: NCI-H520
# In short: as §1
# [5] = tested on: NCI-H322M
# In short: as §1
# [6] = tested on: HCC-15
# In short: as §1
# [7] = tested on: EKVX
# In short: as §1
# [8] = tested on: ABC-1
# In short: as §1
# [9] = tested on: EMC-BAC-2
# In short: as §1
# [10] = tested on: CAL-12T
# In short: as §1
# [11] = tested on: NCI-H1651
# In short: as §1
compound,measurement,setting,value
Cc1csc(=NC2CCCCC2)n1/N=C/c1ccc(O)c(O)c1O [MIM1] + COc1cc2c(Oc3ccc(NC(=O)C4(C(=O)Nc5ccc(F)cc5)CC4)cc3F)ccnc2cc1OCCCN1CCOCC1 [Foretinib] (partner 0.25 µM),relative viability,[1]; first compound 0.2 µM,1.46
same,relative viability,[1]; first compound 2 µM,1.33
same,relative viability,[1]; first compound 6.325 µM,1.17
same,relative viability,[1]; first compound 20 µM,0.218
same,relative viability,[2]; first compound 0.2 µM,0.948
same,relative viability,[2]; first compound 0.6325 µM,0.883
same,relative viability,[2]; first compound 2 µM,0.732
same,relative viability,[2]; first compound 6.325 µM,0.968
same,relative viability,[2]; first compound 20 µM,0.439
same,relative viability,[3]; first compound 0.2 µM,0.705
same,relative viability,[3]; first compound 0.6325 µM,0.531
same,relative viability,[3]; first compound 2 µM,0.719
same,relative viability,[3]; first compound 6.325 µM,0.551
same,relative viability,[3]; first compound 20 µM,0.294
same,relative viability,[4]; first compound 0.2 µM,0.635
same,relative viability,[4]; first compound 0.6325 µM,0.728
same,relative viability,[4]; first compound 2 µM,0.587
same,relative viability,[4]; first compound 6.325 µM,0.646
same,relative viability,[4]; first compound 20 µM,0.501
same,relative viability,[5]; first compound 0.2 µM,0.986
same,relative viability,[5]; first compound 0.6325 µM,0.895
same,relative viability,[5]; first compound 2 µM,0.867
same,relative viability,[5]; first compound 6.325 µM,0.85
same,relative viability,[5]; first compound 20 µM,0.548
same,relative viability,[6]; first compound 0.2 µM,1.09
same,relative viability,[6]; first compound 2 µM,1.06
same,relative viability,[6]; first compound 6.325 µM,0.764
same,relative viability,[6]; first compound 20 µM,0.157
same,relative viability,[7]; first compound 0.2 µM,0.766
same,relative viability,[7]; first compound 0.6325 µM,0.234
same,relative viability,[7]; first compound 2 µM,0.75
same,relative viability,[7]; first compound 6.325 µM,0.379
same,relative viability,[7]; first compound 20 µM,0.422
same,relative viability,[8]; first compound 0.2 µM,1.05
same,relative viability,[8]; first compound 0.6325 µM,1.12
same,relative viability,[8]; first compound 2 µM,0.981
same,relative viability,[8]; first compound 6.325 µM,0.324
same,relative viability,[8]; first compound 20 µM,0.328
same,relative viability,[9]; first compound 0.2 µM,0.698
same,relative viability,[9]; first compound 0.6325 µM,1
same,relative viability,[9]; first compound 2 µM,0.963
same,relative viability,[9]; first compound 6.325 µM,0.697
same,relative viability,[9]; first compound 20 µM,0.449
same,relative viability,[10]; first compound 0.2 µM,1.03
same,relative viability,[10]; first compound 0.6325 µM,1.16
same,relative viability,[10]; first compound 2 µM,1.2
same,relative viability,[10]; first compound 6.325 µM,0.68
same,relative viability,[10]; first compound 20 µM,0.475
same,relative viability,[11]; first compound 0.2 µM,0.722
same,relative viability,[11]; first compound 0.6325 µM,0.741
same,relative viability,[11]; first compound 2 µM,0.824
